Reference: US20240041042A1, “1-(PYRIDYL)-5-AZINYLPYRAZOLE DERIVATIVES, AND THEIR USE FOR CONTROL OF UNDESIRED PLANT GROWTH” (Bayer Aktiengesellschaft, priority 2020, published 2024)
Like-named read-outs stand apart in the source and are kept apart here.

Tests used:
Type in all cases: in vivo
[1] = test system: Digitaria sanguinalis (DIGSA); assay: Pre-emergence herbicidal action against DIGSA; settings: dosage 320 g/ha
Procedure, shortened: (§1)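 Pre-emergence soil-surface spray of compound, formulated as wettable powder or emulsion concentrate, in aqueous suspension or emulsion with 0.5% additive (600 l/ha; rate 320 g/ha or less). Activity rated visually after roughly 3 weeks in the greenhouse as a percentage of untreated controls, 0% meaning no difference.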

[2] = test system: Matricaria inodora (MATIN); assay: Pre-emergence herbicidal action against MATIN; settings: dosage 320 g/ha
Procedure, shortened: as §1

[3] = test system: Abutilon theophrasti (ABUTH); assay: Post-emergence herbicidal action against ABUTH; settings: 80 g/ha, visual rating about 3 weeks after treatment vs untreated controls (100% = plants have died, 0% = like control plants)
Procedure, shortened: (§2)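 Post-emergence greenhouse spray, one-leaf stage, 600 l/ha water plus 0.5% additive; WP or EC formulations; application rates 320 g/ha or lower. Visual % damage vs untreated controls at ~3 weeks.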

[4] = test system: Pharbitis purpurea (PHBPU); assay: Post-emergence herbicidal action against PHBPU; settings: dosage 80 g/ha
Procedure, shortened: as §2

[5] = test system: Alopecurus myosuroides (ALOMY); assay: Post-emergence herbicidal action against ALOMY; settings: 80 g/ha, visual rating about 3 weeks after treatment vs untreated controls (100% = plants have died, 0% = like control plants)
Procedure, shortened: as §2

[6] = test system: Matricaria inodora (MATIN); assay: Post-emergence herbicidal action against MATIN; settings: dosage 80 g/ha
Procedure, shortened: as §2

Lolium rigidum (LOLRI) [7] = assay: Pre-emergence herbicidal action against LOLRI; settings: dosage 320 g/ha
Procedure, shortened: as §1

[8] = test system: Amaranthus retroflexus (AMARE); assay: Pre-emergence herbicidal action against AMARE; settings: 320 g/ha, visual scoring after about 3 weeks vs untreated controls
Procedure, shortened: as §1

[9] = test system: Echinochloa crus-galli (ECHCG); assay: Post-emergence herbicidal action against ECHCG
Procedure, shortened: as §2

[10] = test system: Polygonum convolvulus (POLCO); assay: Pre-emergence herbicidal action against POLCO; settings: dosage 320 g/ha
Procedure, shortened: as §1

Setaria viridis (SETVI) [11] = assay: Pre-emergence herbicidal action against SETVI; settings: dosage 320 g/ha
Procedure, shortened: as §1

Avena fatua (AVEFA) = assay: Post-emergence herbicidal action against AVEFA; settings: 80 g/ha, visual rating about 3 weeks after treatment
Procedure, shortened: as §2

Setaria viridis (SETVI) [12] = assay: Post-emergence herbicidal action against SETVI; settings: dosage 80 g/ha
Procedure, shortened: as §2

[13] = test system: Alopecurus myosuroides (ALOMY); assay: Pre-emergence herbicidal action against ALOMY; settings: 320 g/ha; scored visually after about 3 weeks; 100% = plants have died
Procedure, shortened: as §1

[14] = test system: Pharbitis purpurea (PHBPU); assay: Pre-emergence herbicidal action against PHBPU; settings: dosage 320 g/ha
Procedure, shortened: as §1

Glycine max (GLXMA) [15] = assay: Post-emergence crop plant compatibility, GLXMA; settings: post-emergence, effect in comparison to untreated controls
Method: Seeds of monocotyledonous and dicotyledonous weeds and crop plants are placed in sandy loam in plastic or organic planting pots, covered with soil and cultivated in a greenhouse under controlled growth conditions. 2 to 3 weeks after sowing, the test plants are treated at the one-leaf stage. The compounds of the invention, formulated in the form of wettable powders (WP) or as emulsion concentrates (EC), are then sprayed onto the green parts of the plants as aqueous suspension or emulsion with addition of 0.5% additive at a water application rate of 600 l/ha (converted). After the test plants have been kept in the greenhouse under optimum growth conditions for about 3 weeks, the activity of the preparations is rated visually in comparison to untreated controls. For example, 100% activity=the plants have died, 0% activity=like control plants.
The observed effects on selected crop plants are reported here in comparison to the untreated controls (values in %). The appendices “a”, “b” and “c” give differentiation by dosage used with otherwise the same crop plants tested.

[16] = test system: Echinochloa crus-galli (ECHCG); assay: Pre-emergence herbicidal action against ECHCG; settings: dosage 320 g/ha
Procedure, shortened: as §1

Viola tricolor (VIOTR) [17] = assay: Pre-emergence herbicidal action against VIOTR
Procedure, shortened: as §1

Oryza sativa (ORYSA) [18] = settings: crop plant compatibility
Procedure, shortened: (§3)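 One-leaf-stage crops (2–3 wk post-sowing, sandy loam, greenhouse) sprayed on green parts; 0.5% additive, 600 l/ha water. Rated by eye ~3 wk later, % vs untreated; suffixes a/b/c mark different dosages.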

[19] = test system: Triticum aestivum (TRZAS); settings: crop plant compatibility, effect vs untreated controls
Procedure, shortened: as §3

Lolium rigidum (LOLRI) [20] = assay: Post-emergence herbicidal action against LOLRI; settings: dosage 80 g/ha
Procedure, shortened: as §2

Zea mays (ZEAMX) [21] = settings: pre-emergence, crop plant compatibility, in comparison to untreated controls
Procedure, shortened: (§4)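 Scoring: visual, % of untreated control, about 3 weeks after a pre-emergence application to the soil surface. Application used WP or EC formulations diluted in water with 0.5% additive at 600 l/ha; dosage levels are marked by suffixes a, b and c.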

Brassica napus (BRSNW) = settings: crop plant compatibility, in comparison to untreated controls
Procedure, shortened: as §4

Oryza sativa (ORYSA) [22] = settings: pre-emergence, crop plant compatibility, in comparison to untreated controls
Procedure, shortened: as §4

[23] = test system: Triticum aestivum (TRZAS); settings: pre-emergence, crop plant compatibility, in comparison to untreated controls
Procedure, shortened: as §4

Zea mays (ZEAMX) [24] = settings: for Post-emergence action against ZEAMX in % (crop plant compatibility): 20 g/ha, effect in comparison to untreated controls; for Post-emergence action against ZEAMX in %: crop plant compatibility, 80 g/ha, effect vs untreated controls
Procedure, shortened: as §3

Viola tricolor (VIOTR) [25] = assay: Post-emergence herbicidal action against VIOTR; settings: 320 g/ha
Procedure, shortened: as §2

Glycine max (GLXMA) [26] = settings: pre-emergence, 80 g/ha, crop plant compatibility, in comparison to untreated controls
Procedure, shortened: as §4

[27] = 20 g/ha, effect vs untreated controls
[28] = 80 g/ha, effect in comparison to untreated controls

Compound: CCOC(=O)CSc1nn(-c2ccccn2)c(-c2cncc(F)c2)c1Br [Example I-125]
- Pre-emergence action against DIGSA in % [1]: 100%
- Pre-emergence action against MATIN in % [2]: 90%
- Post-emergence action against ABUTH in % [3]: 80%
- Post-emergence action against PHBPU in % [4]: 80%
- Post-emergence action against ALOMY in % [5]: 90%
- Post-emergence action against MATIN in % [6]: 80%
- Pre-emergence action against LOLRI in % (Lolium rigidum (LOLRI) [7]): 80%
- Pre-emergence action against AMARE in % [8]: 100%
- Post-emergence action against ECHCG in % ([9]; dosage 80 g/ha): 90%
- Pre-emergence action against POLCO in % [10]: 90%
- Pre-emergence action against SETVI in % (Setaria viridis (SETVI) [11]): 90%
- Post-emergence action against AVEFA in % (Avena fatua (AVEFA)): 90%
- Post-emergence action against SETVI in % (Setaria viridis (SETVI) [12]): 80%
- Pre-emergence action against ALOMY [13]: 80%
- Pre-emergence action against PHBPU in % [14]: 90%
- Post-emergence action against GLXMA in % (Glycine max (GLXMA) [15]; 20 g/ha): 20%
- Pre-emergence action against ECHCG in % [16]: 80%
- Pre-emergence action against VIOTR in % (Viola tricolor (VIOTR) [17]; 320 g/ha, Viola tricolor): 90%
- Post-emergence action against ORYSA in % (Oryza sativa (ORYSA) [18]; [27]): 0%
- Post-emergence action against ORYSA in % (Oryza sativa (ORYSA) [18]; [28]): 0%
- Post-emergence action against TRZAS in % ([19]; 20 g/ha): 10%
- Post-emergence action against LOLRI in % (Lolium rigidum (LOLRI) [20]): 80%
- Pre-emergence action against ZEAMX in % (Zea mays (ZEAMX) [21]; 80 g/ha): 10%
- Pre-emergence action against BRSNW in % (Brassica napus (BRSNW); 80 g/ha): 20%
- Pre-emergence action against ORYSA in % (Oryza sativa (ORYSA) [22]; 80 g/ha): 10%
- Pre-emergence action against TRZAS in % ([23]; 80 g/ha): 10%

Compound: COC(=O)CN(C)C(=O)COc1nn(-c2ccccn2)c(-c2ccc(F)nc2)c1Br [Example I-114]
- Pre-emergence action against DIGSA in % [1]: 90%
- Post-emergence action against ALOMY in % [5]: 90%
- Post-emergence action against SETVI in % (Setaria viridis (SETVI) [12]): 80%
- Pre-emergence action against ALOMY [13]: 100%
- Post-emergence action against GLXMA in % (Glycine max (GLXMA) [15]; 20 g/ha): 0%
- Post-emergence action against GLXMA in % (Glycine max (GLXMA) [15]; 80 g/ha): 0%
- Pre-emergence action against VIOTR in % (Viola tricolor (VIOTR) [17]; 320 g/ha, Viola tricolor): 90%
- Pre-emergence action against VIOTR in % (Viola tricolor (VIOTR) [17]; dosage 80 g/ha): 80%
- Post-emergence action against ZEAMX in % (crop plant compatibility) (Zea mays (ZEAMX) [24]): 0%
- Post-emergence action against ZEAMX in % (Zea mays (ZEAMX) [24]): 0%
- Post-emergence action against ORYSA in % (Oryza sativa (ORYSA) [18]; [27]): 0%
- Post-emergence action against ORYSA in % (Oryza sativa (ORYSA) [18]; [28]): 0%
- Post-emergence action against TRZAS in % ([19]; 20 g/ha): 0%
- Post-emergence action against TRZAS in % ([19]; 80 g/ha): 0%
- Pre-emergence action against ZEAMX in % (Zea mays (ZEAMX) [21]; 80 g/ha): 10%
- Pre-emergence action against ZEAMX in % (Zea mays (ZEAMX) [21]; 320 g/ha): 20%
- Pre-emergence action against ORYSA in % (Oryza sativa (ORYSA) [22]; 80 g/ha): 0%
- Pre-emergence action against ORYSA in % (Oryza sativa (ORYSA) [22]; 320 g/ha): 0%
- Pre-emergence action against TRZAS in % ([23]; 80 g/ha): 20%

Compound: CCOC(=O)CCNC(=O)CSc1nn(-c2ccccn2)c(-c2cncc(F)c2)c1Br [Example I-82]
- Pre-emergence action against MATIN in % [2]: 90%
- Post-emergence action against ECHCG in % ([9]; dosage 320 g/ha): 80%
- Pre-emergence action against SETVI in % (Setaria viridis (SETVI) [11]): 90%
- Post-emergence action against GLXMA in % (Glycine max (GLXMA) [15]; 80 g/ha): 0%
- Pre-emergence action against ECHCG in % [16]: 90%
- Post-emergence action against VIOTR in % (Viola tricolor (VIOTR) [25]): 80%
- Post-emergence action against ORYSA in % (Oryza sativa (ORYSA) [18]; [28]): 20%
- Pre-emergence action against GLXMA in % (Glycine max (GLXMA) [26]): 0%
- Pre-emergence action against BRSNW in % (Brassica napus (BRSNW); 80 g/ha): 20%
- Pre-emergence action against BRSNW in % (Brassica napus (BRSNW); 320 g/ha): 20%
- Pre-emergence action against ORYSA in % (Oryza sativa (ORYSA) [22]; 80 g/ha): 0%
- Pre-emergence action against TRZAS in % ([23]; 80 g/ha): 0%
- Pre-emergence action against TRZAS in % ([23]; 320 g/ha): 20%

Compound: COC(=O)COc1nn(-c2ncccc2F)c(-c2cncc(F)c2)c1Br [Example I-49]
- Post-emergence action against GLXMA in % (Glycine max (GLXMA) [15]; 20 g/ha): 10%
- Post-emergence action against ZEAMX in % (crop plant compatibility) (Zea mays (ZEAMX) [24]): 0%
- Post-emergence action against ZEAMX in % (Zea mays (ZEAMX) [24]): 10%
- Post-emergence action against ORYSA in % (Oryza sativa (ORYSA) [18]; [27]): 0%
- Post-emergence action against ORYSA in % (Oryza sativa (ORYSA) [18]; [28]): 10%
- Post-emergence action against TRZAS in % ([19]; 20 g/ha): 0%
- Post-emergence action against TRZAS in % ([19]; 80 g/ha): 10%
- Pre-emergence action against ZEAMX in % (Zea mays (ZEAMX) [21]; 80 g/ha): 0%
- Pre-emergence action against ZEAMX in % (Zea mays (ZEAMX) [21]; 320 g/ha): 0%
- Pre-emergence action against BRSNW in % (Brassica napus (BRSNW); 80 g/ha): 10%
- Pre-emergence action against ORYSA in % (Oryza sativa (ORYSA) [22]; 80 g/ha): 10%
- Pre-emergence action against ORYSA in % (Oryza sativa (ORYSA) [22]; 320 g/ha): 20%
- Pre-emergence action against TRZAS in % ([23]; 80 g/ha): 0%
- Pre-emergence action against TRZAS in % ([23]; 320 g/ha): 0%
